From patent US20090099158A1, “TETRAHYDROISOQUINOLINE COMPOUNDS AS MODULATORS OF THE HISTAMINE H3 RECEPTOR” (priority 2007, published 2009)

Experiments:
[1] = target: T1, Rat H3 (Rattus norvegicus, UniProt Q9QYN8); test: H3 Receptor Binding (Rat); parameters: A rat brain without cerebellum (Zivic Laboratories Inc., Pittsburgh, Pa.) was homogenized; tissue Zivic Laboratories Inc; host or cells: rat brain without cerebellum (membranes); settings: rat brain (without cerebellum) membranes; 0.8 nM N-[3H]-α-methylhistamine, 60 min at 25° C.; IC50 converted to Ki; average
T1 sequence (Q9QYN8 whole entry): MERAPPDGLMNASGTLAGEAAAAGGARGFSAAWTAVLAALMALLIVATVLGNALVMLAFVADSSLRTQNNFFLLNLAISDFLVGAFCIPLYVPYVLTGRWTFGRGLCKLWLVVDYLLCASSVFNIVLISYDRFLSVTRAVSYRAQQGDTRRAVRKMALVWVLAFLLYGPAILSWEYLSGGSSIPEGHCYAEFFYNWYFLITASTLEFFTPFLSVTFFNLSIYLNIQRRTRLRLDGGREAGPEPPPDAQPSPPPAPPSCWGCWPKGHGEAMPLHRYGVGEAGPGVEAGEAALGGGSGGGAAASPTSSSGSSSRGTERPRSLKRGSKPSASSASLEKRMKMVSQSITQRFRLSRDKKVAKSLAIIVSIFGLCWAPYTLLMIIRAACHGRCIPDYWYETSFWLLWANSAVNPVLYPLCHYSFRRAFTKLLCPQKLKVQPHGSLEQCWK
Protocol: A rat brain without cerebellum (Zivic Laboratories Inc., Pittsburgh, Pa.) was homogenized in 50 mM Tris-HCl/5 mM EDTA and centrifuged at 1,000 rpm for 5 min. The supernatant was removed and recentrifuged at 15,000 rpm for 30 min. Pellets were rehomogenized in 50 mM Tris/5 mM EDTA (pH 7.4). Membranes were incubated with 0.8 nM N-[^3H]-α-methylhistamine plus/minus test compounds for 60 min at 25° C. and harvested by rapid filtration over GF/C glass fiber filters (pretreated with 0.3% polyethylenimine) followed by four washes with buffer. Nonspecific binding was defined in the presence of 100 μM histamine. Inhibitory concentration (responsible for 50% inhibition of maximal effect, IC50) values were determined by a single site curve-fitting program (GraphPad, San Diego, Calif.) and converted to Ki values based on a N-[^3H]-α-methylhistamine dissociation constant (Kd) of 0.8 nM. Data for compounds tested in this assay are presented in Table 2 as an average of the results obtained.

[2] = target: T2, cloned human H3 receptors (Homo sapiens, UniProt Q9Y5N1); test: H3 Receptor Binding (Human); settings: cloned human H3 receptors stably expressed in SK-N-MC cells; average of the results obtained
T2 construct: expressed in transfected cells; host or cells: SK-N-MC cells
T2 sequence (Q9Y5N1 whole entry): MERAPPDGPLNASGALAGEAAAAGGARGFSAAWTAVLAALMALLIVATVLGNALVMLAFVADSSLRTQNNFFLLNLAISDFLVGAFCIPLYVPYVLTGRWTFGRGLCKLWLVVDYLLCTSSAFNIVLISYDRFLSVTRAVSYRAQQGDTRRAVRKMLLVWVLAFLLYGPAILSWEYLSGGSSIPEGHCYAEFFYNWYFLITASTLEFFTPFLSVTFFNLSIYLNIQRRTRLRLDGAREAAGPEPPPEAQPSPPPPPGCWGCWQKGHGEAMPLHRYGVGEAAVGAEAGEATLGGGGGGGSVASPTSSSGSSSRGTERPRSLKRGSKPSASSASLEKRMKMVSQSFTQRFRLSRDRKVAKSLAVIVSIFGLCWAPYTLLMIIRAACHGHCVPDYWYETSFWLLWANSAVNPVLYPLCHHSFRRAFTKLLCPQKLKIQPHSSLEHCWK
Protocol: Binding of compounds to the cloned human H3 receptors, stably expressed in SK-N-MC cells, was performed as described by Barbier, A. J. et al. (Br. J. Pharmacol. 2004, 143(5), 649-661). Data for compounds tested in this assay are presented in Table 1 as an average of the results obtained.

[3] = target: T3, human H3 receptor (Homo sapiens, UniProt Q9Y5N1); test: Cyclic AMP Accumulation (human H3 receptor); assay type: cell-based; settings: SK-N-MC cells expressing a reporter construct and the human H3 receptor; average; read-out: Human pA2 (converted)
T3 construct: expressed in transfected cells; host or cells: SK-N-MC sublines with reporter construct
T3 sequence (Q9Y5N1 whole entry): as above
Text: (§1) Sublines of SK-N-MC cells were created that expressed a reporter construct and either the human or rat H3 receptor. The pA2 values were obtained as described by Barbier et al. (2004). Data for compounds tested in these assays are presented in Table 3, as an average of the results obtained (NT=not tested).

[4] = target: T1, Rat H3; test: Cyclic AMP Accumulation (rat H3 receptor); assay type: cell-based; parameters: expressed in transfected cells; host or cells: SK-N-MC sublines with reporter construct; settings: SK-N-MC cells expressing a reporter construct and the rat H3 receptor; average; read-out: Rat pA2 (converted)
Text: as §1

Compound | Ki [1] [nM] | Ki [2] [nM] | Kb [3] [nM] | Kb [4] [nM]
CCCC(=O)N1CCc2cc(C(=O)N3CCC[C@H]3CN3CCCC3)ccc2C1 [Example 46, (S)-1-[6-(2-Pyrrolidin-1-ylmethyl-pyrrolidine-1-carbonyl)-3,4-dihydro-1H-isoquinolin-2-yl]-butan-1-one] |  | 4 | 2.82 | 18.2
O=C(c1ccc2c(c1)CCN(C(=O)c1ccccc1)C2)N1CCN(C2CCC2)CC1 [Example 27, (2-Benzoyl-1,2,3,4-tetrahydro-isoquinolin-6-yl)-(4-cyclobutyl-piperazin-1-yl)-methanone] | 84 | 9 |  | 
CCC(=O)N1CCc2cc(C(=O)N3CCC[C@H]3CN3CCCC3)ccc2C1 [Example 45, (S)-1-[6-(2-Pyrrolidin-1-ylmethyl-pyrrolidine-1-carbonyl)-3,4-dihydro-1H-isoquinolin-2-yl]-propan-1-one] |  | 6 | 2.82 | 20.4
O=C(c1ccc2c(c1)CCN(C(=O)c1ccc(Cl)cc1)C2)N1CCCN(C2CCC2)CC1 [Example 133, (4-Chloro-phenyl)-[6-(4-cyclobutyl-[1,4]diazepane-1-carbonyl)-3,4-dihydro-1H-isoquinolin-2-yl]-methanone] | 18 | 2 |  | 
O=C(c1ccc2c(c1)CCN(C(=O)C1CCCCC1)C2)N1CCN(C2CCC2)CC1 [Example 33, [6-(4-Cyclobutyl-piperazine-1-carbonyl)-3,4-dihydro-1H-isoquinolin-2-yl]-cyclohexyl-methanone] | 123 | 8 |  | 13.8
O=C(c1ccc2c(c1)CCN(Cc1ccsc1)C2)N1CCN(C2CCC2)CC1 [Example 15, (4-Cyclobutyl-piperazin-1-yl)-(2-thiophen-3-ylmethyl-1,2,3,4-tetrahydro-isoquinolin-6-yl)-methanone] |  | 4 | 1.05 | 
O=C(c1ccc2c(c1)CN(Cc1ccccc1)CC2)N1CCN(C2CCC2)CC1 [Example 26, (2-Benzyl-1,2,3,4-tetrahydro-isoquinolin-7-yl)-(4-cyclobutyl-piperazin-1-yl)-methanone] |  | 2 | 17.8 | 
CC(C)N1CCN(C(=O)c2ccc3c(c2)CCN(Cc2ccc(Cl)cc2)C3)CC1 [Example 22, [2-(4-Chloro-benzyl)-1,2,3,4-tetrahydro-isoquinolin-6-yl]-(4-isoproplyl-piperazin-1-yl)-methanone] |  | 5 | 10.5 | 30.9
CC(C)N1CCCN(C(=O)c2ccc3c(c2)CCNC3)CC1 [Example 5, (4-Isopropyl-[1,4]diazepan-1-yl)-(1,2,3,4-tetrahydro-isoquinolin-6-yl)-methanone] |  | 3 | 1.55 | 15.8
O=C(c1ccc2c(c1)CCN(C1CCC1)C2)N1CCN2CCCCC2C1 (centres unmarked) [Example 187, (2-Cyclobutyl-1,2,3,4-tetrahydro-isoquinolin-6-yl)-(octahydro-pyrido[1,2-a]pyrazin-2-yl)-methanone] | 30 | 3 |  | 
O=C(c1ccc2c(c1)CCN(C(=O)c1cccc(Cl)c1)C2)N1CCN(C2CCC2)CC1 [Example 119, (3-Chloro-phenyl)-[6-(4-cyclobutyl-piperazine-1-carbonyl)-3,4-dihydro-1H-isoquinolin-2-yl]-methanone] |  | 11 |  | 
Cc1ccccc1C(=O)N1CCc2cc(C(=O)N3CCN4CCCCC4C3)ccc2C1 (centres unmarked) [Example 96, [2-(2-Methyl-benzoyl)-1,2,3,4-tetrahydro-isoquinolin-6-yl]-(octahydro-pyrido[1,2-a]pyrazin-2-yl)-methanone] |  | 15 |  | 
CCC(=O)N1CCc2cc(C(=O)N3CCN(C4CCCC4)CC3)ccc2C1 [Example 63, 1-[6-(4-Cyclopentyl-piperazine-1-carbonyl)-3,4-dihydro-1H-isoquinolin-2-yl]-propan-1-one] |  | 61 |  | 
Cc1ccc(C(=O)N2CCc3cc(C(=O)N4CCN(C5CCCC5)CC4)ccc3C2)cc1 [Example 70, (4-Cyclopentyl-piperazin-1-yl)-[2-(4-methyl-benzoyl)-1,2,3,4-tetrahydro-isoquinolin-6-yl]-methanone] |  | 65 |  | 
O=C(c1ccc2c(c1)CCN(Cc1ccc(Cl)cc1)C2)N1CCN(C2CC2)CC1 [Example 24, [2-(4-Chloro-benzyl)-1,2,3,4-tetrahydro-isoquinolin-6-yl]-(4-cyclopropyl-piperazin-1-yl)-methanone] |  | 75 |  | 
CC(C)(C)C1CCN(C(=O)c2ccc3c(c2)CCN(C2CCCC2)C3)CC1 [Example 193, (4-tert-Butyl-piperidin-1-yl)-(2-cyclopentyl-1,2,3,4-tetrahydro-isoquinolin-6-yl)-methanone] |  | 240 |  | 
CCCN1CCc2cc(C(=O)N3CCCN(C4CCC4)CC3)ccc2C1 [Example 183, (4-Cyclobutyl-[1,4]diazepan-1-yl)-(2-propyl-1,2,3,4-tetrahydro-isoquinolin-6-yl)-methanone] |  | 1 |  | 
CCS(=O)(=O)N1CCc2cc(C(=O)N3CCN(C4CCC4)CC3)ccc2C1 [Example 100, (4-Cyclobutyl-piperazin-1-yl)-(2-ethanesulfonyl-1,2,3,4-tetrahydro-isoquinolin-6-yl)-methanone] |  | 35 |  | 

More lines, in order of falling Ki [2], values ahead:

Ki [1] [nM] | Ki [2] [nM] | Kb [3] [nM] | Kb [4] [nM] | Compound
8 | 1 |  |  | O=C(c1ccc2c(c1)CCN(C(=O)C1CCOC1)C2)N1CCCN(C2CCC2)CC1 (centres unmarked) [Example 137, [6-(4-Cyclobutyl-[1,4]diazepane-1-carbonyl)-3,4-dihydro-1H-isoquinolin-2-yl]-(tetrahydro-furan-3-yl)-methanone]
 | 1 | 0.49 | 3.8 | O=C(c1ccc2c(c1)CN(C(=O)c1ccccc1)CC2)N1CCCN(C2CCC2)CC1 [Example 36, [7-(4-Cyclobutyl-[1,4]diazepane-1-carbonyl)-3,4-dihydro-1H-isoquinolin-2-yl]-phenyl-methanone]
1 | 1 |  |  | CC(C)N1CCc2cc(C(=O)N3CCCN(C4CCC4)CC3)ccc2C1 [Example 177, (4-Cyclobutyl-[1,4]diazepan-1-yl)-(2-isopropyl-1,2,3,4-tetrahydro-isoquinolin-6-yl)-methanone]
7 | 1 |  |  | CCC(=O)N1CCc2cc(C(=O)N3CCCN(C4CCC4)CC3)ccc2C1 [Example 139, 1-[6-(4-Cyclobutyl-[1,4]diazepane-1-carbonyl)-3,4-dihydro-1H-isoquinolin-2-yl]-propan-1-one]
28 | 1 |  |  | Cc1ccc(C(=O)N2CCc3cc(C(=O)N4CCCN(C5CCC5)CC4)ccc3C2)cc1F [Example 142, [6-(4-Cyclobutyl-[1,4]diazepane-1-carbonyl)-3,4-dihydro-1H-isoquinolin-2-yl]-(3-fluoro-4-methyl-phenyl)-methanone]
11 | 1 |  |  | O=C(c1ccc2c(c1)CCN(C(=O)c1cccc(Cl)c1)C2)N1CCCN(C2CCC2)CC1 [Example 135, (3-Chloro-phenyl)-[6-(4-cyclobutyl-[1,4]diazepane-1-carbonyl)-3,4-dihydro-1H-isoquinolin-2-yl]-methanone]
 | 1 | 0.355 | 2.88 | O=C(c1ccc2c(c1)CCN(C(=O)C1CCCCC1)C2)N1CCCN(C2CCC2)CC1 [Example 40, [6-(4-Cyclobutyl-[1,4]diazepane-1-carbonyl)-3,4-dihydro-1H-isoquinolin-2-yl]-cyclohexyl-methanone]
32 | 1 |  |  | O=C(c1ccc2c(c1)CCN(C(=O)c1ccc(F)cc1F)C2)N1CCCN(C2CCC2)CC1 [Example 144, [6-(4-Cyclobutyl-[1,4]diazepane-1-carbonyl)-3,4-dihydro-1H-isoquinolin-2-yl]-(2,4-difluoro-phenyl)-methanone]
 | 1 | 0.661 | 4.47 | CC(C)N1CCCN(C(=O)c2ccc3c(c2)CCN(Cc2ccccc2)C3)CC1 [Example 11, (2-Benzyl-1,2,3,4-tetrahydro-isoquinolin-6-yl)-(4-isopropyl-[1,4]diazepan-1-yl)-methanone]
16 | 1 |  |  | O=C(c1ccc2c(c1)CCN(C(=O)c1ccccc1F)C2)N1CCCN(C2CCC2)CC1 [Example 136, [6-(4-Cyclobutyl-[1,4]diazepane-1-carbonyl)-3,4-dihydro-1H-isoquinolin-2-yl]-(2-fluoro-phenyl)-methanone]
